Key:
[1] = clinical; settings: human, in vivo, po, 400 mg
[2] = cited from earlier work
[3] = cited from earlier work; remark: listed apart in the source

| Compound | Tmax [1] | solubility in water [2] | onset of therapeutic effects after oral administration [3] |
| --- | --- | --- | --- |
| CC(C)Cc1ccc(C(C)C(=O)O)cc1 (racemic) [ibuprofen sodium dihydrate, (R,S)-2-(4-isobutylphenyl) propionate sodium] | ~35 min |  |  |
| CC(C)Cc1ccc(C(C)C(=O)O)cc1 (racemic) [Ibuprofen, (R,S)-2-(4-isobutylphenyl) propionic acid] |  | practically insoluble | between 45 minutes and one hour |
